The values that follow come from US10670605B2, “Cysteine reactive probes and uses thereof” (The Scripps Research Institute, priority 2015, dated 2020).

Experiment in all cases: Competitive isoTOP-ABPP in situ (fragment-treated cells)
What all share (assay type): cell-based

Experiment [1] deals with T1, cysteines in MDA-MB-231 and Ramos cells (Homo sapiens, UniProt P42166).
T1 sequence (P42166 1-694): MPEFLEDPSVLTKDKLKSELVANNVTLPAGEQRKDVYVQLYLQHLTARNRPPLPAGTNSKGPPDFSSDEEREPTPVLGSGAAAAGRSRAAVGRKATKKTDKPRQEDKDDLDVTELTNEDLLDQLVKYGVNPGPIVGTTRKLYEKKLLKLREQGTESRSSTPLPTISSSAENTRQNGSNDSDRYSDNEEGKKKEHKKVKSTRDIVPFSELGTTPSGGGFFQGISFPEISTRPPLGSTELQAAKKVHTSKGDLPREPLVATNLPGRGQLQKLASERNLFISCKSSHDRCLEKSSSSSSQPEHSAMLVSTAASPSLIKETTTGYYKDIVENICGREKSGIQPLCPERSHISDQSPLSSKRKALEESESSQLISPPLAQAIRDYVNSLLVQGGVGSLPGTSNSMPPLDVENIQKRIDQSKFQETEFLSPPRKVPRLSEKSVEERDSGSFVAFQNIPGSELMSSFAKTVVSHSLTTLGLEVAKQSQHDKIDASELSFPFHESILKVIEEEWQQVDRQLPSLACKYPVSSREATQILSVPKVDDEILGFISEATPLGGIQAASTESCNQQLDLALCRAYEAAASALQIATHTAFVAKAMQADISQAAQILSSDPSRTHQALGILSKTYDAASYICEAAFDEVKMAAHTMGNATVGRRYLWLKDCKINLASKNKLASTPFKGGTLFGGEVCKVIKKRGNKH
Particulars: 200 μM, insitu.

Experiment [2] deals with T2, cysteines in MDA-MB-231 and Ramos cells (Homo sapiens, UniProt Q99439).
T2 sequence (Q99439 1-309): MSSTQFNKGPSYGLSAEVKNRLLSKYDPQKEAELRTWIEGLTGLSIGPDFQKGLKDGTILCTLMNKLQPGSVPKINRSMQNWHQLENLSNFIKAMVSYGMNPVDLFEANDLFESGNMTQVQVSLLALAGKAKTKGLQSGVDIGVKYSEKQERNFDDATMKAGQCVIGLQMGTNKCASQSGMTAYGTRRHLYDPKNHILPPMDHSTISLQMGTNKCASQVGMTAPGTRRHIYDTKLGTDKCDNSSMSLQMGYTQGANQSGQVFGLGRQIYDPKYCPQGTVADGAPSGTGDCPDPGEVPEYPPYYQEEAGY
Particulars: 200 μM, insitu.

The target of experiment [3] is T3, cysteines in MDA-MB-231 and Ramos cells (Homo sapiens, UniProt Q9NS86).
T3 sequence (Q9NS86 1-450): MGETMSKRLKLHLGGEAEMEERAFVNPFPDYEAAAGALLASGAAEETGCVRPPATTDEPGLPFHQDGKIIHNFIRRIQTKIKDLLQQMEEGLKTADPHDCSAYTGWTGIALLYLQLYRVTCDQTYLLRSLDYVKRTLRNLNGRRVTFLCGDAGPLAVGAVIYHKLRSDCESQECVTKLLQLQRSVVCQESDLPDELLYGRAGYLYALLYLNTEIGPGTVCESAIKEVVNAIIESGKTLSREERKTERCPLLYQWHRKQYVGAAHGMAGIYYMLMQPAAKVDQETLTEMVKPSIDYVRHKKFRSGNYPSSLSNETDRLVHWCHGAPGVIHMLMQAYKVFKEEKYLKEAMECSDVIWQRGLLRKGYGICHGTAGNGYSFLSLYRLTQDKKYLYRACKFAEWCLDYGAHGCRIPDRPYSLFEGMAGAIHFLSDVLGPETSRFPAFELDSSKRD
The note with it: 200 μM, insitu, 231.

The target in experiment [4] is T4, cysteines in MDA-MB-231 and Ramos cells (Homo sapiens, UniProt Q13428).
T4 sequence (Q13428 1-1488): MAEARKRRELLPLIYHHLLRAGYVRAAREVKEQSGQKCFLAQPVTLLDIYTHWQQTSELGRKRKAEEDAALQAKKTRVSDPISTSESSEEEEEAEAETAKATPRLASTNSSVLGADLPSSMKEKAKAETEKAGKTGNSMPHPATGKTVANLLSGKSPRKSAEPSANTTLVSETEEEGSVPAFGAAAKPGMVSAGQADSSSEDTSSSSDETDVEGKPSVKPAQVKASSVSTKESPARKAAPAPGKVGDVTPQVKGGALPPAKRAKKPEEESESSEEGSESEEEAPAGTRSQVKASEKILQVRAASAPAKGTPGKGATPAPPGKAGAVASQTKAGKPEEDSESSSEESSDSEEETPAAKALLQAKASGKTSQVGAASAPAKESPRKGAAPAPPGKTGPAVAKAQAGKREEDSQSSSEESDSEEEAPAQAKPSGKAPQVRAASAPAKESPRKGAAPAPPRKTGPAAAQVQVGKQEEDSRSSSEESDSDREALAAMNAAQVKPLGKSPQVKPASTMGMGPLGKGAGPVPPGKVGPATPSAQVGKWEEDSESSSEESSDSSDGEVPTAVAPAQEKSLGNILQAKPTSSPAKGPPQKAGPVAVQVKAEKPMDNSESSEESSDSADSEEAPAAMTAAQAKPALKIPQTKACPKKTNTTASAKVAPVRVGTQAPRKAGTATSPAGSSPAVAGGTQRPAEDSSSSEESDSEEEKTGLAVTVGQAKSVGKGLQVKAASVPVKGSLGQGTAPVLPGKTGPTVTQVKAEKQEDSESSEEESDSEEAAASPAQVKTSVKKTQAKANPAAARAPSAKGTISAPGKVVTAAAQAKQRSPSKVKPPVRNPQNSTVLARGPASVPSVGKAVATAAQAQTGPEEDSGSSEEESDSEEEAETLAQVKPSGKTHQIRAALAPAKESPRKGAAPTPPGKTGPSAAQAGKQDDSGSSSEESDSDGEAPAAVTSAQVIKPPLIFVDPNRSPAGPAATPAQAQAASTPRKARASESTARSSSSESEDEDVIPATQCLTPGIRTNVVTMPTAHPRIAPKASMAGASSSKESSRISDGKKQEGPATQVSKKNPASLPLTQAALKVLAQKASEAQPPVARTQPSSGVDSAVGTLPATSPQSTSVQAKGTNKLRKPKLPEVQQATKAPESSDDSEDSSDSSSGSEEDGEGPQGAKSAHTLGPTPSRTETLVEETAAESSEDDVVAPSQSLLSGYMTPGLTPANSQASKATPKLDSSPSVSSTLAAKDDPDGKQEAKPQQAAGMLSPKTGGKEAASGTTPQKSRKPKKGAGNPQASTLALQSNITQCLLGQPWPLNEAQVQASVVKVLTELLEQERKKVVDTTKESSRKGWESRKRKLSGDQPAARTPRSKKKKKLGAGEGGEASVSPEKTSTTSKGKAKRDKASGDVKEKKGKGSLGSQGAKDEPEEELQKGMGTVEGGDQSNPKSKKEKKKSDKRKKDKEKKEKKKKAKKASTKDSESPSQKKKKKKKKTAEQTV
Particulars: 200 μM, insitu.

SMILES strings stand for the structures.

For the compound `C=CC(=O)Nc1cc(F)c(N2CCN(C(=O)OC(C)(C)C)CC2)c(F)c1` [compound 38], in experiment [1] (231), the “isoTOP-ABPP ratio P42166_C518” value was 2.2, the “isoTOP-ABPP ratio P42166_C561” value came out at 20.0 and the “isoTOP-ABPP ratio P42166_C684” value was determined as 3.0. In addition, in experiment [2] (231), the “isoTOP-ABPP ratio Q99439_C164” value is 1.5. Also, the “isoTOP-ABPP ratio Q9NS86_C187” value in experiment [3] was 2.0. Besides, in experiment [4] (231), the “isoTOP-ABPP ratio Q13428_C38” value came out at 1.1 and the “isoTOP-ABPP ratio Q13428_C1298” value came to 2.0.

Regarding `C=CC(=O)N(Cc1cccnc1)c1cc(C(F)(F)F)cc(C(F)(F)F)c1` [compound 31], the “isoTOP-ABPP ratio P42166_C561” value in experiment [1] (231) stood at 1.3. Besides, in experiment [1] (ramos), the “isoTOP-ABPP ratio P42166_C341” value turned out to be 2.0, the “isoTOP-ABPP ratio P42166_C561” value is 2.5 and the “isoTOP-ABPP ratio P42166_C684” value was 3.3. Further, the “isoTOP-ABPP ratio Q99439_C164” value in experiment [2] (231) came to 0.7. For the same compound, the “isoTOP-ABPP ratio Q99439_C164” value in experiment [2] (ramos) came to 1.3. Also, in experiment [3], the “isoTOP-ABPP ratio Q9NS86_C187” value is 0.5. For the same compound, in experiment [4] (ramos), the “isoTOP-ABPP ratio Q13428_C1298” value was 2.2.

As for `COc1cc2c(cc1OC)CN(C(=O)CCl)CC2` [compound 8], in experiment [1] (231), the “isoTOP-ABPP reactivity P42166_C341 TMPO” value is 4.4, the “isoTOP-ABPP reactivity P42166_C561 TMPO” value worked out at 4.6, the “isoTOP-ABPP reactivity P42166_C629 TMPO” value is 1.7 and the “isoTOP-ABPP reactivity P42166_C684 TMPO” value came to 4.6. Further, in experiment [2] (231), the “isoTOP-ABPP reactivity Q99439_C164 CNN2” value is given as 1.1. Besides, the “isoTOP-ABPP reactivity Q9NS86_C187 LANCL2” value in experiment [3] is 6.1. In experiment [4] (231), the “isoTOP-ABPP reactivity Q13428_C38 TCOF1” value is 2.0 and the “isoTOP-ABPP reactivity Q13428_C1298 TCOF1” value was determined as 20.0.
